Data published in patent US10392347B2, “2,4-dihydroxy-nicotinamides as APJ agonists” (BRISTOL-MYERS SQUIBB COMPANY, priority 2015, dated 2019).

Target: T1, human APJ receptor (Homo sapiens, UniProt P35414)
T1 construct: expressed in transfected cells
T1 sequence (P35414 1-380): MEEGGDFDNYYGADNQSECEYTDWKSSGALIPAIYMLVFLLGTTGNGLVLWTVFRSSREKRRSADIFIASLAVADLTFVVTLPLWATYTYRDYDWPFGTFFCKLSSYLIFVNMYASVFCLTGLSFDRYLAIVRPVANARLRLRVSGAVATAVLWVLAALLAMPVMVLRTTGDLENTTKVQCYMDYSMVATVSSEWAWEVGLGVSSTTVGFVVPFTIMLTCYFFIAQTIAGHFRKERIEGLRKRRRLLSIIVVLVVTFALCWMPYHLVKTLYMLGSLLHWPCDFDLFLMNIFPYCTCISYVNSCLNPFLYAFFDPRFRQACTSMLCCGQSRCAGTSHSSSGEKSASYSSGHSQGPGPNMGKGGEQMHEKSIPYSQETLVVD
Test: Intracellular cAMP accumulation assay (APJ hcAMP, HTRF)
Type: cell-based
Settings: APJ cAMP EC50 (nM), Table 1; HEK293 cells stably expressing human APJ, forskolin-stimulated cAMP
Procedure: Intracellular cAMP Accumulation Assay
HEK293 cells stably expressing human APJ receptor were used to assess the activity of compounds. Cultured cells were detached and resuspended in the cAMP Homogeneous Time-Resolved Fluorescence (HTRF) assay buffer (Cisbio cat; #62AM4PEJ). […] Serial dilutions of a compound together with assay buffer containing […] and 2 μM forskolin were added to each well containing 5,000 cells and incubated for 30 minutes at room temperature. Subsequently, cAMP D2 reagent was added in the lysis buffer followed by the EuK antibody (Cisbio; cat #62AM4PEJ) and incubated for 60 min. The fluorescence emission ratio was measured using fluorometer. The intracellular cAMP concentrations (compound-stimulated inhibition of forskolin-mediated cAMP production) were calculated by extrapolation from a standard curve using known cAMP concentrations. The EC50 values were obtained by fitting the data to a sigmoidal concentration-response curve with variable slope.
The EC50 value of each compound is presented at the end of the example description.
The biological activity of the exemplified compounds of this invention determined by the assay described above is shown at the end of each example.

SMILES | EC50 [nM]
CCCCc1[nH]c(=O)c(C(=O)N2CC[C@H](c3ccccc3)C2)c(O)c1-c1c(OC)cccc1OC [Example 28, 6-butyl-5-(2,6-dimethoxyphenyl)-3-[(3R)-3-phenylpyrrolidine-1-carbonyl]pyridine-2,4-diol] | 0.01 to 10

Same assay, conditions: HEK293 cells stably expressing human APJ; read-out: Human APJ cAMP EC50 Potency range

SMILES | EC50 [nM]
CCCCc1nc(O)c(C(=O)N2CCC(c3ccc(Cl)cn3)C2)c(O)c1-c1c(OC)cccc1OC (single isomer, unassigned) [Example 74, (6-butyl-5-(2,6-dimethoxyphenyl)-2,4-dihydroxypyridin-3-yl)(3-(5-chloropyridin-2-yl)pyrrolidin-1-yl)methanone] | 0.01 to 10

Same assay, conditions: Table 1; HEK293 cells stably expressing human APJ, forskolin-stimulated cAMP; read-out: APJ cAMP EC50

SMILES | EC50 [nM]
CCCCc1nc(O)c(C(=O)N2CCN(c3ncccc3C(F)(F)F)CC2)c(O)c1-c1c(OC)cccc1OC [Example 11, 6-butyl-5-(2,6-dimethoxyphenyl)-3-{4-[3-(trifluoromethyl)pyridin-2-yl]piperazine-1-carbonyl}pyridine-2,4-diol] | 10 to 100
CCOCc1nc(O)c(C(=O)N2CC[C@H](c3ccccc3)C2)c(O)c1-c1c(OC)cccc1OC [Example 26, 5-(2,6-dimethoxyphenyl)-6-(ethoxymethyl)-3-[(3R)-3-phenylpyrrolidine-1-carbonyl]pyridine-2,4-diol] | 10 to 100
CCCCc1nc(O)c(C(=O)N2CCC(N3CCCC3)CC2)c(O)c1-c1c(OC)cccc1OC [Example 61, 6-butyl-5-(2,6-dimethoxyphenyl)-3-[4-(pyrrolidin-1-yl)piperidine-1-carbonyl]pyridine-2,4-diol] | 10 to 100
CCCCc1nc(O)c(C(=O)N(C)CCc2ccccn2)c(O)c1-c1c(OC)cccc1OC [Example 15, 6-butyl-5-(2,6-dimethoxyphenyl)-2,4-dihydroxy-N-methyl-N-[2-(pyridin-2-yl)ethyl]pyridine-3-carboxamide] | 0.01 to 10
CCCCc1nc(O)c(C(=O)N2CCC(c3cc(-c4ccccc4)[nH]n3)CC2)c(O)c1-c1c(OC)cccc1OC [Example 67, 6-butyl-5-(2,6-dimethoxyphenyl)-3-[4-(5-phenyl-1H-pyrazol-3-yl)piperidine-1-carbonyl]pyridine-2,4-diol] | 100 to 300
CCCCc1nc(O)c(C(=O)N2CCN(c3ccc(Cl)cc3)CC2)c(O)c1-c1c(OC)cccc1OC [Example 68, 6-butyl-3-[4-(4-chlorophenyl)piperazine-1-carbonyl]-5-(2,6-dimethoxyphenyl)pyridine-2,4-diol] | 10 to 100
CCCCc1nc(O)c(C(=O)N2CCN(c3nccn3C)CC2)c(O)c1-c1c(OC)cccc1OC [Example 3, 6-butyl-5-(2,6-dimethoxyphenyl)-3-[4-(1-methyl-1H-imidazol-2-yl)piperazine-1-carbonyl]pyridine-2,4-diol] | 100 to 300
CCCCc1nc(O)c(C(=O)N2CCN(c3ccc(NC(=O)OC)cc3)CC2)c(O)c1-c1c(OC)cccc1OC [Example 10, methyl N-(4-{4-[6-butyl-5-(2,6-dimethoxyphenyl)-2,4-dihydroxypyridine-3-carbonyl]piperazin-1-yl}phenyl)carbamate] | 10 to 100
CCCCc1nc(O)c(C(=O)N2CCC(c3nc(-c4cccnc4)no3)CC2)c(O)c1-c1c(OC)cccc1OC [Example 69, 6-butyl-5-(2,6-dimethoxyphenyl)-3-{4-[3-(pyridin-3-yl)-1,2,4-oxadiazol-5-yl]piperidine-1-carbonyl}pyridine-2,4-idiol] | 10 to 100
CCCCc1nc(O)c(C(=O)N2CCC(c3nc(CCC)no3)CC2)c(O)c1-c1c(OC)cccc1OC [Example 5, 6-butyl-5-(2,6-dimethoxyphenyl)-3-[4-(3-propyl-1,2,4-oxadiazol-5-yl)piperidine-1-carbonyl]pyridine-2,4-diol] | 10 to 100
CCCCc1nc(O)c(C(=O)N2CCN(c3ccccc3)CC2)c(O)c1-c1c(OC)cccc1OC [Example 30, 6-butyl-5-(2,6-dimethoxyphenyl)-3-(4-phenylpiperazine-1-carbonyl)pyridine-2,4-diol] | 10 to 100
CCCCc1nc(O)c(C(=O)N2CCC3(CC2)OCc2ccccc23)c(O)c1-c1c(OC)cccc1OC [Example 64, 6-butyl-5-(2,6-dimethoxyphenyl)-3-({3H-spiro[2-benzofuran-1,4′-piperidine]-1′-yl}carbonyl)pyridine-2,4-diol] | 10 to 100
CCCCc1nc(O)c(C(=O)N2CCN(c3nsc4ccccc34)CC2)c(O)c1-c1c(OC)cccc1OC [Example 49, 3-[4-(1,2-benzothiazol-3-yl)piperazine-1-carbonyl]-6-butyl-5-(2,6-dimethoxyphenyl)pyridine-2,4-diol] | 0.01 to 10
CCCCc1nc(O)c(C(=O)N2CCC(c3ccccc3OC)CC2)c(O)c1-c1c(OC)cccc1OC [Example 19, 6-butyl-5-(2,6-dimethoxyphenyl)-3-[4-(2-methoxyphenyl)piperidine-1-carbonyl]pyridine-2,4-diol] | 10 to 100

Same assay, conditions: Table 2; HEK293 cells stably expressing human APJ, forskolin-stimulated cAMP; read-out: APJ cAMP EC50

SMILES | EC50 [nM]
CCCCc1nc(O)c(C(=O)N2CCC(c3ccc(F)cc3)C2)c(O)c1-c1c(OC)cccc1OC (single isomer, unassigned) [Example 40, 6-butyl-5-(2,6-dimethoxyphenyl)-3-[3-(4-fluorophenyl)pyrrolidine-1-carbonyl]pyridine-2,4-diol] | 0.01 to 10
CCCCc1nc(O)c(C(=O)N2CCCC2c2ccccn2)c(O)c1-c1c(OC)cccc1OC (racemic) [Example 8, 6-butyl-5-(2,6-dimethoxyphenyl)-3-[2-(pyridin-2-yl)pyrrolidine-1-carbonyl]pyridine-2,4-diol] | 0.01 to 10

Same assay, conditions: Table 3; HEK293 cells stably expressing human APJ, forskolin-stimulated cAMP; read-out: APJ cAMP EC50

SMILES | EC50 [nM]
CCOCc1nc(O)c(C(=O)N2CCC(c3ccc(Cl)cn3)C2)c(O)c1-c1c(OC)cccc1OC (stereo not drawn) [Example 76, 3-[3-(5-chloropyridin-2-yl)pyrrolidine-1-carbonyl]-5-(2,6-dimethoxyphenyl)-6-(ethoxymethyl)pyridine-2,4-diol] | 0.01 to 10
CCCCc1nc(O)c(C(=O)N2CCC(c3ncc(F)cc3F)C2)c(O)c1-c1c(OC)cccc1OC (stereo not drawn) [Example 83, 6-butyl-3-[3-(3,5-difluoropyridin-2-yl)pyrrolidine-1-carbonyl]-5-(2,6-dimethoxyphenyl)pyridine-2,4-diol] | 0.01 to 10
COc1cccc(OC)c1-c1c(-c2ccc(F)cc2)nc(O)c(C(=O)N2CCC(c3ncc(F)cc3F)C2)c1O (stereo not drawn) [Example 87, (3-(3,5-difluoropyridin-2-yl)pyrrolidin-1-yl)(5-(2,6-dimethoxyphenyl)-6-(4-fluorophenyl)-2,4-dihydroxypyridin-3-yl)methanone] | 0.01 to 10

Same assay, conditions: Table 4; HEK293 cells stably expressing human APJ, forskolin-stimulated cAMP; read-out: Human cAMP EC50

SMILES | EC50 [nM]
CCCCc1nc(O)c(C(=O)N2CC(NS(=O)(=O)c3cccc(F)c3F)C2)c(O)c1-c1c(OC)cccc1OC [Example 118, N-{1-[6-butyl-5-(2,6-dimethoxyphenyl)-2,4-dihydroxypyridine-3-carbonyl]azetidin-3-yl}-2,3-difluorobenzene-1-sulfonamide] | 0.01 to 10
CCCCc1nc(O)c(C(=O)N(C)CCNc2ncc(Cl)cc2F)c(O)c1-c1c(OC)cccc1OC [Example 102, 6-butyl-N-{2-[(5-chloro-3-fluoropyridin-2-yl)amino]ethyl}-5-(2,6-dimethoxyphenyl)-2,4-dihydroxy-N-methylpyridine-3-carboxamide] | 10 to 100
CCOCc1nc(O)c(C(=O)N2CCN(Cc3cccc(F)c3)CC2)c(O)c1-c1c(OC)cccc1OC [Example 90, 5-(2,6-dimethoxyphenyl)-6-(ethoxymethyl)-3-{4-[(3-fluorophenyl)methyl]piperazine-1-carbonyl}pyridine-2,4-diol] | 10 to 100
CCCCc1nc(O)c(C(=O)N2CC(NC(=O)c3ccccc3)C2)c(O)c1-c1c(OC)cccc1OC [Example 98, N-{1-[6-butyl-5-(2,6-dimethoxyphenyl)-2,4-dihydroxypyridine-3-carbonyl]azetidin-3-yl}benzamide] | 0.01 to 10

Same assay, conditions: Table 5; HEK293 cells stably expressing human APJ, forskolin-stimulated cAMP; read-out: Human cAMP EC50

SMILES | EC50 [nM]
COc1cccc(-c2c(-c3csc(C)n3)nc(O)c(C(=O)N3CCC(c4ncc(F)cc4F)C3)c2O)c1 (stereo not drawn) [Example 129, 3-[3-(3,5-difluoropyridin-2-yl)pyrrolidine-1-carbonyl]-5-(3-methoxyphenyl)-6-(2-methyl-1,3-thiazol-4-yl)pyridine-2,4-diol] | 0.01 to 10

Same assay, conditions: Table 6; HEK293 cells stably expressing human APJ, forskolin-stimulated cAMP; read-out: Human cAMP EC50

SMILES | EC50 [nM]
CCOCc1nc(O)c(C(=O)N2CCC(c3ccc(F)cc3F)C2)c(O)c1-c1c(OC)cccc1OC (stereo not drawn) [Example 132, 3-[3-(2,4-difluorophenyl)pyrrolidine-1-carbonyl]-5-(2,6-dimethoxyphenyl)-6-(ethoxymethyl)-4-hydroxy-1,2-dihydropyridin-2-one] | 0.01 to 10
